Source: patent US20250057944A1, “OLIGOSACCHARIDE COMPLEXES AND USES” (BioNTech SE, priority 2021, published 2025)

What was measured:
[1] = Hydrodynamic diameter of complexes by dynamic light scattering; format: physicochemical
Experimental: Sizes of complexes described in the present examples were analyzed by DynaPro PlateReader II, using dynamic light scattering (DLS) for calculating the hydrodynamic diameter of complexes. […] Ten acquisitions are recorded per well, each lasting 5 seconds.

C57BL/6 IFNAR −/− mice = format: in vivo
BALB/c mice [2] = details: mouse, in vivo
BALB/c mice [3] = details: mouse, in vivo; remark: listed apart in the source
BALB/c mice [4] = experiment: In-vivo luciferase expression in applied tissue after i.m. application of RNA complexes; details: N/P 6 (FIG. 7B)
hPBMCs = experiment: Cytokine secretion by hPBMCs 24 h after transfection with modRNA formulations (MSD kit); format: cell-based, human; details: oligosaccharide:Tween40 1:0.5, modRNA, N/P 6, 24 hours (FIGS. 19A-D)
Experimental: All groups received modRNA formulated at N/P 6. Formulations were complexed with RNA in MBG Buffer (final concentration 5% w/v Glucose, 10 mM MES, pH 6.1), at RNA final concentration of 0.15 mg/ml and the mixing ratio of the RNA containing solution and the oligosaccharide+Tween40 containing solution was 9:1 (v:v) for all the cases. IL-6, TNF-α, IL-1β and IFN-γ secretion after 24 hours of transfection of […] hPMBCs was evaluated in the supernatants using MSD Kit Standard Protocol.

BALB/c mice [5] = experiment: Intramuscular vaccination with HA modRNA formulated with oligosaccharide+Tween40 (Example 10); details: mouse, in vivo

## CCCCCCCCCC(=O)OC1C(OC(=O)CCCCCCCCC)[C@H](OC(=O)CCCCCCCCC)C(CSCCNC(=S)NCCN(C)C)O[C@@H]1O[C@H]1OC(CSCCNC(=S)NCCN(C)C)[C@@H](OC(=O)CCCCCCCCC)C(OC(=O)CCCCCCCCC)C1OC(=O)CCCCCCCCC (stereo partly drawn) [JLF41]
[1]; modRNA (FIG. 6A)
  Difference in particle size between N/P 1 and N/P 6: greater difference in particle size

## CCCCCCCCCC(=O)OC1C(OC(=O)CCCCCCCCC)[C@H](OC(=O)CCCCCCCCC)C(CSCCNC(=S)NCCN2CCOCC2)O[C@@H]1O[C@H]1OC(CSCCNC(=S)NCCN2CCOCC2)[C@@H](OC(=O)CCCCCCCCC)C(OC(=O)CCCCCCCCC)C1OC(=O)CCCCCCCCC (stereo partly drawn) [JLF99]
[1]; saRNA, N/P 6 (FIG. 5A)
  Hydrodynamic diameter: about 150 nm
C57BL/6 IFNAR −/− mice; JLF99+Tween40 1:0.5, 1.3 μg saRNA i.m., prime/boost d0/d28, N/P6
  Immunological response with CCHFV-Gc antigen: strong immunological response
C57BL/6 IFNAR −/− mice; mouse, in vivo
  Antibody level versus LNP: lower than the LNP
  Antibody levels versus LNP benchmark: identical to the ones achieved by the LNP benchmark
  T-cell responses against Gc-peptides: equally strong
BALB/c mice [2]
  Delivery of RNAs and immune response: functionally delivered all the RNAs upon i.m injection and elicited a strong immune response
BALB/c mice [3]
  CD4-CD8 response versus LNP benchmark: no significant difference
  IgG against HA-antigen over the course of the experiment versus LNP benchmark: no apparent differences
  Serological concentration of IgG at the end-point (day 49): comparable to the LNP group
BALB/c mice [4]
  modRNA expression (bioluminescence normalized to the JLF41-modRNA group): promising modRNA expression

## CCCCCCCCCC(=O)OC1C(OC(=O)CCCCCCCCC)[C@H](OC(=O)CCCCCCCCC)C(CSCCNC(=S)NCCn2ccnc2)O[C@@H]1O[C@H]1OC(CSCCNC(=S)NCCn2ccnc2)[C@@H](OC(=O)CCCCCCCCC)C(OC(=O)CCCCCCCCC)C1OC(=O)CCCCCCCCC (stereo partly drawn) [JLF110]
hPBMCs
  Level of secretion of pro-inflammatory cytokines, IL-6, TNF-α, IL-1β and IFN-γ: medium levels of secretion

## CCCCCCCCCC(=O)OC[C@@]1(O[C@H]2OC(CSCCNC(=S)NCCN3CCOCC3)[C@@H](OC(=O)CCCCCCCCC)[C@H](OC(=O)CCCCCCCCC)C2OC(=O)CCCCCCCCC)O[C@H](CSCCNC(=S)NCCN2CCOCC2)[C@@H](OC(=O)CCCCCCCCC)[C@@H]1OC(=O)CCCCCCCCC (stereo partly drawn) [JLF218]
BALB/c mice [5]
  IgG concentration against HA: then by JLF99 and JLF218

## CCCCCCCCCC(=O)OC1C(OC(=O)CCCCCCCCC)[C@H](OC(=O)CCCCCCCCC)C(CSCCNC(=S)NCCN2CCC(C(N)=O)CC2)O[C@@H]1O[C@H]1OC(CSCCNC(=S)NCCN2CCC(C(N)=O)CC2)[C@@H](OC(=O)CCCCCCCCC)C(OC(=O)CCCCCCCCC)C1OC(=O)CCCCCCCCC (stereo partly drawn) [JLF244]
BALB/c mice [5]
  IgG concentration against HA: highest IgG concentration
hPBMCs
  Level of secretion of pro-inflammatory cytokines, IL-6, TNF-α, IL-1β and IFN-γ: highest level of secretion
